Key:
ragweed [1] = experiment: Test A preemergence; format: in vivo, Ambrosia elatior; conditions: for Ragweed plant response rating: 500 g ai/ha
Outline: (§1)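 Injury scores run from 0, no effect, to 100, complete control, judged by eye against untreated plants roughly 10 days after treatment. Chemicals carried a surfactant in a non-phytotoxic solvent and went onto loam–sand soil preemergence or onto one- to two-leaf seedlings postemergence.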

Italian ryegrass [2] = experiment: Test A preemergence; format: in vivo, Lolium multiflorum; conditions: for Ryegrass, Italian plant response rating: 500 g ai/ha
Outline: as §1

Italian ryegrass [3] = experiment: Test A postemergence; format: in vivo, Lolium multiflorum
Outline: as §1

blackgrass [4] = experiment: Test A postemergence; format: in vivo, Alopecurus myosuroides
Outline: as §1

galium [5] = experiment: Test A postemergence; format: in vivo, Galium aparine
Outline: as §1

blackgrass [6] = experiment: Test C preemergence; format: in vivo, Alopecurus myosuroides; conditions: for Blackgrass plant response rating: preemergence; for Plant response rating, Blackgrass: Preemergence, scale 0 to 100, 0 no effect, 100 complete control
Outline: (§2)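 Visual ratings on a 0–100 scale (100 = complete control) were made versus untreated controls after 13–15 greenhouse days. Chemicals in a surfactant-containing non-phytotoxic solvent were applied either preemergence to seeds in loam–sand soil or postemergence to 1- to 4-leaf plants 2–18 cm tall.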

galium [7] = experiment: Test C preemergence; format: in vivo, Galium aparine; conditions: for Galium plant response rating: preemergence; for Plant response rating, Galium: Preemergence, scale 0 to 100, 0 no effect, 100 complete control
Outline: as §2

corn = experiment: Test C preemergence; format: in vivo, Zea mays; conditions: for Corn plant response rating: preemergence; for Plant response rating, Corn: Preemergence, scale 0 to 100, 0 no effect, 100 complete control
Outline: as §2

large (Lg) crabgrass = experiment: Test C preemergence; format: in vivo, Digitaria sanguinalis; conditions: for Crabgrass, Large plant response rating: preemergence; for Plant response rating, Crabgrass, Large: Preemergence, scale 0 to 100, 0 no effect, 100 complete control
Outline: as §2

giant foxtail = experiment: Test C preemergence; format: in vivo, Setaria faberii; conditions: for Foxtail, Giant plant response rating: preemergence; for Plant response rating, Foxtail, Giant: Preemergence, scale 0 to 100, 0 no effect, 100 complete control
Outline: as §2

johnsongrass = experiment: Test C preemergence; format: in vivo, Sorghum halepense; conditions: for Johnsongrass plant response rating: preemergence; for Plant response rating, Johnsongrass: Preemergence, scale 0 to 100, 0 no effect, 100 complete control
Outline: as §2

lambsquarters = experiment: Test C preemergence; format: in vivo, Chenopodium album; conditions: for Lambsquarters plant response rating: preemergence; for Plant response rating, Lambsquarters: Preemergence, scale 0 to 100, 0 no effect, 100 complete control
Outline: as §2

yellow nutsedge = experiment: Test C preemergence; format: in vivo, Cyperus esculentus; conditions: for Nutsedge, Yellow plant response rating: preemergence; for Plant response rating, Nutsedge, Yellow: Preemergence, scale 0 to 100, 0 no effect, 100 complete control
Outline: as §2

pigweed = experiment: Test C preemergence; format: in vivo, Amaranthus retroflexus; conditions: for Pigweed plant response rating: preemergence; for Plant response rating, Pigweed: Preemergence, scale 0 to 100, 0 no effect, 100 complete control
Outline: as §2

ragweed [8] = experiment: Test C preemergence; format: in vivo, Ambrosia elatior; conditions: for Ragweed plant response rating: preemergence; for Plant response rating, Ragweed: Preemergence, scale 0 to 100, 0 no effect, 100 complete control
Outline: as §2

barnyardgrass = experiment: Test C preemergence; format: in vivo, Echinochloa crus-galli; conditions: for Barnyardgrass plant response rating: preemergence; for Plant response rating, Barnyardgrass: Preemergence, scale 0 to 100, 0 no effect, 100 complete control
Outline: as §2

oilseed rape = experiment: Test C preemergence; format: in vivo, Brassica napus; conditions: for Oilseed Rape plant response rating: preemergence; for Plant response rating, Oilseed Rape: Preemergence, scale 0 to 100, 0 no effect, 100 complete control
Outline: as §2

waterhemp = experiment: Test C preemergence; format: in vivo, Amaranthus rudis; conditions: for Waterhemp plant response rating: preemergence; for Plant response rating, Waterhemp: Preemergence, scale 0 to 100, 0 no effect, 100 complete control
Outline: as §2

[9] = 125 g ai/ha, 0 to 100 scale where 0 is no effect and 100 is complete control
[10] = 0 to 100 scale where 0 is no effect and 100 is complete control
[11] = 500 g ai/ha, 0 to 100 scale where 0 is no effect and 100 is complete control
[12] = 8 g ai/ha, scale 0 to 100 (0 no effect, 100 complete control)
[13] = 16 g ai/ha, scale 0 to 100 (0 no effect, 100 complete control)
[14] = 62 g ai/ha, scale 0 (no effect) to 100 (complete control)
[15] = 125 g ai/ha, 0 to 100 scale, 0 no effect, 100 complete control
[16] = 125 g ai/ha, scale 0 (no effect) to 100 (complete control)

## N#Cc1cnn(-c2c(C#N)cccc2Oc2ncc(Br)cn2)c1 [Compound 135]
Ragweed [1]; [9]
  Plant response rating, Ragweed: 90
Ragweed [1]; [10]
  Ragweed plant response rating: 90
Italian ryegrass [2]; [9]
  Plant response rating, Ryegrass, Italian: 0
Italian ryegrass [2]; [10]
  Ryegrass, Italian plant response rating: 20
Italian ryegrass [3]; [9]
  Ryegrass, Italian plant response rating: 20
Italian ryegrass [3]; [11]
  Plant response rating, Ryegrass, Italian: 70
Blackgrass [4]; [9]
  Blackgrass plant response rating: 30
Blackgrass [4]; [11]
  Plant response rating, Blackgrass: 90
Galium [5]; [9]
  Galium plant response rating: 60
Galium [5]; [11]
  Plant response rating, Galium: 90
Blackgrass [6]; [12]
  Blackgrass plant response rating: 0
Blackgrass [6]; [13]
  Blackgrass plant response rating: 0
Blackgrass [6]; [14]
  Blackgrass plant response rating: 20
Blackgrass [6]; 31 g ai/ha
  Plant response rating, Blackgrass: 5
Galium [7]; [12]
  Galium plant response rating: 0
Galium [7]; [13]
  Galium plant response rating: 0
Galium [7]; [14]
  Galium plant response rating: 90
Galium [7]; 31 g ai/ha
  Plant response rating, Galium: 80
corn; [12]
  Corn plant response rating: 5
corn; [13]
  Corn plant response rating: 10
corn; [14]
  Corn plant response rating: 30
corn; 31 g ai/ha
  Plant response rating, Corn: 5
Large (Lg) crabgrass; [12]
  Crabgrass, Large plant response rating: 45
Large (Lg) crabgrass; [13]
  Crabgrass, Large plant response rating: 60
Large (Lg) crabgrass; [14]
  Crabgrass, Large plant response rating: 100
Large (Lg) crabgrass; 31 g ai/ha
  Plant response rating, Crabgrass, Large: 100
Giant foxtail; [12]
  Foxtail, Giant plant response rating: 0
Giant foxtail; [13]
  Foxtail, Giant plant response rating: 5
Giant foxtail; [14]
  Foxtail, Giant plant response rating: 70
Giant foxtail; 31 g ai/ha
  Plant response rating, Foxtail, Giant: 70
johnsongrass; [12]
  Johnsongrass plant response rating: 0
johnsongrass; [13]
  Johnsongrass plant response rating: 0
johnsongrass; [14]
  Johnsongrass plant response rating: 45
johnsongrass; 31 g ai/ha
  Plant response rating, Johnsongrass: 5
lambsquarters; [13]
  Lambsquarters plant response rating: 30
lambsquarters; [14]
  Lambsquarters plant response rating: 85
lambsquarters; 31 g ai/ha
  Plant response rating, Lambsquarters: 85
Yellow nutsedge; [12]
  Nutsedge, Yellow plant response rating: 0
Yellow nutsedge; [13]
  Nutsedge, Yellow plant response rating: 0
Yellow nutsedge; [14]
  Nutsedge, Yellow plant response rating: 15
Yellow nutsedge; 31 g ai/ha
  Plant response rating, Nutsedge, Yellow: 0
pigweed; [12]
  Pigweed plant response rating: 50
pigweed; [13]
  Pigweed plant response rating: 85
pigweed; [14]
  Pigweed plant response rating: 98
pigweed; 31 g ai/ha
  Plant response rating, Pigweed: 80
Ragweed [8]; [12]
  Ragweed plant response rating: 0
Ragweed [8]; [13]
  Ragweed plant response rating: 40
Ragweed [8]; [14]
  Ragweed plant response rating: 65
Ragweed [8]; 31 g ai/ha
  Plant response rating, Ragweed: 55
barnyardgrass; [12]
  Barnyardgrass plant response rating: 0
barnyardgrass; [13]
  Barnyardgrass plant response rating: 0
barnyardgrass; [14]
  Barnyardgrass plant response rating: 60
barnyardgrass; 31 g ai/ha
  Plant response rating, Barnyardgrass: 15
Oilseed rape; [12]
  Oilseed Rape plant response rating: 30
Oilseed rape; [13]
  Oilseed Rape plant response rating: 55
Oilseed rape; [14]
  Oilseed Rape plant response rating: 95
Oilseed rape; 31 g ai/ha
  Plant response rating, Oilseed Rape: 95
waterhemp; [12]
  Waterhemp plant response rating: 55
waterhemp; [13]
  Waterhemp plant response rating: 75
waterhemp; [14]
  Waterhemp plant response rating: 100
waterhemp; 31 g ai/ha
  Plant response rating, Waterhemp: 100

## N#Cc1cn(-c2c(C#N)cccc2Oc2ncc(Cl)cn2)nn1 [Compound 273]
Ragweed [1]; 125 g ai/ha
  Ragweed plant response rating (0 to 100 scale): 70
Ragweed [1]; [10]
  Ragweed plant response rating: 80
Italian ryegrass [2]; 125 g ai/ha
  Ryegrass, Italian plant response rating (0 to 100 scale): 20
Italian ryegrass [2]; [10]
  Ryegrass, Italian plant response rating: 40
Italian ryegrass [3]; [15]
  Plant response rating, Ryegrass, Italian: 50
Italian ryegrass [3]; [11]
  Plant response rating, Ryegrass, Italian: 80
Blackgrass [4]; [15]
  Plant response rating, Blackgrass: 60
Blackgrass [4]; [11]
  Plant response rating, Blackgrass: 80
Galium [5]; [15]
  Plant response rating, Galium: 80
Galium [5]; [11]
  Plant response rating, Galium: 100
Blackgrass [6]; [13]
  Blackgrass plant response rating: 0
Blackgrass [6]; [16]
  Blackgrass plant response rating: 70
Blackgrass [6]; 62 g ai/ha
  Plant response rating, Blackgrass: 5
Galium [7]; [13]
  Galium plant response rating: 0
Galium [7]; [16]
  Galium plant response rating: 98
Galium [7]; 62 g ai/ha
  Plant response rating, Galium: 95
corn; [13]
  Corn plant response rating: 0
corn; [16]
  Corn plant response rating: 35
corn; 62 g ai/ha
  Plant response rating, Corn: 45
Large (Lg) crabgrass; [13]
  Crabgrass, Large plant response rating: 90
Large (Lg) crabgrass; [16]
  Crabgrass, Large plant response rating: 100
Large (Lg) crabgrass; 62 g ai/ha
  Plant response rating, Crabgrass, Large: 95
Giant foxtail; [13]
  Foxtail, Giant plant response rating: 0
Giant foxtail; [16]
  Foxtail, Giant plant response rating: 90
Giant foxtail; 62 g ai/ha
  Plant response rating, Foxtail, Giant: 75
johnsongrass; [13]
  Johnsongrass plant response rating: 0
johnsongrass; [16]
  Johnsongrass plant response rating: 80
johnsongrass; 62 g ai/ha
  Plant response rating, Johnsongrass: 55
lambsquarters; [13]
  Lambsquarters plant response rating: 35
lambsquarters; [16]
  Lambsquarters plant response rating: 100
lambsquarters; 62 g ai/ha
  Plant response rating, Lambsquarters: 100
Yellow nutsedge; [13]
  Nutsedge, Yellow plant response rating: 0
Yellow nutsedge; [16]
  Nutsedge, Yellow plant response rating: 35
Yellow nutsedge; 62 g ai/ha
  Plant response rating, Nutsedge, Yellow: 5
pigweed; [13]
  Pigweed plant response rating: 55
pigweed; [16]
  Pigweed plant response rating: 100
pigweed; 62 g ai/ha
  Plant response rating, Pigweed: 100
Ragweed [8]; [13]
  Ragweed plant response rating: 10
Ragweed [8]; [16]
  Ragweed plant response rating: 85
Ragweed [8]; 62 g ai/ha
  Plant response rating, Ragweed: 55
barnyardgrass; [13]
  Barnyardgrass plant response rating: 0
barnyardgrass; [16]
  Barnyardgrass plant response rating: 85
barnyardgrass; 62 g ai/ha
  Plant response rating, Barnyardgrass: 25
Oilseed rape; [13]
  Oilseed Rape plant response rating: 0
Oilseed rape; [16]
  Oilseed Rape plant response rating: 100
Oilseed rape; 62 g ai/ha
  Plant response rating, Oilseed Rape: 80
waterhemp; [13]
  Waterhemp plant response rating: 45
waterhemp; [16]
  Waterhemp plant response rating: 100
waterhemp; 62 g ai/ha
  Plant response rating, Waterhemp: 98

From patent US9695155B2, “Herbicidal substituted pyrimidinyloxy benzene compounds” (E. I. DU PONT DE NEMOURS AND COMPANY, priority 2013, dated 2017)
